# Laboratory results: PubChem BioAssay (NCI)
# Values joined by “and” are separate entries in the source; they are usually repeats but may differ in a detail not shown here. Identical values can stand only once.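 Protocol summary: plate cells (96-well), add compound at 5 concentrations, incubate 48 h, interpolate endpoints linearly. GI50 marks 50% less growth. TGI is the concentration that stops growth completely.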
# Columns and labels:
# Test in all cases: growth of human tumour cells (NCI), 48 h
# A549 NSCLC = system: A549 NSCLC
# NCI-H460 lung = system: NCI-H460 lung
# HOP-62 NSCLC = system: HOP-62 NSCLC
# OVCAR-5 ovarian = system: OVCAR-5 ovarian
# SW-620 colon = system: SW-620 colon
# SK-OV-3 ovarian = system: SK-OV-3 ovarian
# RXF 393 renal = system: RXF 393 renal
# OVCAR-8 ovarian = system: OVCAR-8 ovarian
# SN12C renal = system: SN12C renal
# T-47D breast = system: T-47D breast
# MDA-N = system: MDA-N
smiles,measurement,setting,value
O=NN1CCCS1(=O)=O,TGI,A549 NSCLC,> 100 µM
same,TGI,NCI-H460 lung,> 100 µM
same,TGI,HOP-62 NSCLC,> 100 µM
same,TGI,OVCAR-5 ovarian,> 100 µM
same,TGI,SW-620 colon,> 100 µM
same,TGI,SK-OV-3 ovarian,> 100 µM
same,TGI,RXF 393 renal,> 100 µM
same,TGI,OVCAR-8 ovarian,> 100 µM
same,TGI,SN12C renal,> 100 µM
same,TGI,T-47D breast,> 100 µM
Cn1c(=O)n(CC2CS2)c2ccccc21 (stereo unspecified),TGI,A549 NSCLC,> 100 µM
same,TGI,NCI-H460 lung,> 100 µM
same,TGI,HOP-62 NSCLC,> 100 µM
same,TGI,OVCAR-5 ovarian,> 100 µM
same,TGI,SW-620 colon,> 100 µM
same,TGI,SK-OV-3 ovarian,> 100 µM
same,TGI,RXF 393 renal,> 100 µM
same,TGI,SN12C renal,> 100 µM
O=c1oc2cccnc2n1CCCCN1CCN(c2ccccc2)CC1,TGI,A549 NSCLC,> 100 µM
same,TGI,NCI-H460 lung,> 100 µM
same,TGI,HOP-62 NSCLC,> 100 µM
same,TGI,OVCAR-5 ovarian,> 100 µM
same,TGI,SW-620 colon,> 100 µM
same,TGI,SK-OV-3 ovarian,> 100 µM
same,TGI,RXF 393 renal,> 100 µM
same,TGI,OVCAR-8 ovarian,> 100 µM
same,TGI,MDA-N,> 100 µM
same,TGI,T-47D breast,> 100 µM
NC1c2c(Cl)sc(Cl)c2C(=O)C1O (stereo unspecified),TGI,A549 NSCLC,> 100 µM
same,TGI,NCI-H460 lung,> 100 µM
same,TGI,OVCAR-5 ovarian,> 100 µM
same,TGI,SW-620 colon,50.5 µM
same,TGI,SK-OV-3 ovarian,> 100 µM
same,TGI,RXF 393 renal,25.7 µM
same,TGI,OVCAR-8 ovarian,51.8 µM
same,TGI,MDA-N,> 100 µM
same,TGI,SN12C renal,29.2 µM
same,TGI,T-47D breast,> 100 µM
NC(=S)N/N=C1\CCCC1C(O)(C(F)(F)Cl)C(F)(F)Cl (stereo unspecified),TGI,A549 NSCLC,> 10 µM
same,TGI,NCI-H460 lung,> 10 µM
same,TGI,HOP-62 NSCLC,> 10 µM
same,TGI,OVCAR-5 ovarian,> 10 µM
same,TGI,SW-620 colon,> 10 µM
same,TGI,SK-OV-3 ovarian,> 10 µM
same,TGI,RXF 393 renal,> 10 µM
same,TGI,OVCAR-8 ovarian,> 10 µM
same,TGI,SN12C renal,> 10 µM
same,TGI,T-47D breast,> 10 µM
O=c1[nH]c2cc([N+](=O)[O-])c(Nc3c4ccccc4nc4ccccc34)c([N+](=O)[O-])c2[nH]1,TGI,A549 NSCLC,12.3 µM
same,TGI,NCI-H460 lung,7.75 µM
same,TGI,HOP-62 NSCLC,11.6 µM
same,TGI,OVCAR-5 ovarian,7.08 µM
same,TGI,SW-620 colon,14.7 µM
same,TGI,SK-OV-3 ovarian,24.7 µM
same,TGI,RXF 393 renal,10.1 µM
same,TGI,OVCAR-8 ovarian,16.3 µM
same,TGI,SN12C renal,9.1 µM
same,TGI,T-47D breast,8.83 µM
C=CC(OC(C)=O)c1ccc(OC(C)=O)cc1 (stereo unspecified),TGI,A549 NSCLC,43.6 µM
same,TGI,NCI-H460 lung,37.1 µM
same,TGI,HOP-62 NSCLC,12.3 µM
same,TGI,OVCAR-5 ovarian,28.1 µM
same,TGI,SK-OV-3 ovarian,32.6 µM
same,TGI,RXF 393 renal,28.1 µM
same,TGI,OVCAR-8 ovarian,11.7 µM
same,TGI,MDA-N,10.9 µM
same,TGI,T-47D breast,8.24 µM
COc1cc2oc(=O)cc(C)c2cc1OC,TGI,A549 NSCLC,> 100 µM
same,TGI,HOP-62 NSCLC,> 100 µM
same,TGI,OVCAR-5 ovarian,> 100 µM
same,TGI,SW-620 colon,> 100 µM
same,TGI,SK-OV-3 ovarian,> 100 µM
same,TGI,OVCAR-8 ovarian,> 100 µM
same,TGI,MDA-N,> 100 µM
same,TGI,SN12C renal,> 100 µM
N#C/C(C(=O)Nc1ccccc1)=C(/N)N1CCCCC1,TGI,A549 NSCLC,> 100 µM
same,TGI,NCI-H460 lung,> 100 µM
same,TGI,HOP-62 NSCLC,> 100 µM
same,TGI,OVCAR-5 ovarian,> 100 µM
same,TGI,SW-620 colon,> 100 µM
same,TGI,SK-OV-3 ovarian,> 100 µM
same,TGI,OVCAR-8 ovarian,> 100 µM
same,TGI,MDA-N,> 100 µM
same,TGI,SN12C renal,> 100 µM
same,TGI,T-47D breast,> 100 µM
NNC(=O)Cn1ccnn1,TGI,A549 NSCLC,> 100 µM
same,TGI,NCI-H460 lung,> 100 µM
same,TGI,HOP-62 NSCLC,> 100 µM
same,TGI,OVCAR-5 ovarian,> 100 µM
same,TGI,SW-620 colon,> 100 µM
same,TGI,OVCAR-8 ovarian,> 100 µM
same,TGI,SN12C renal,> 100 µM
CCOC(=O)CCC(NC(=O)OCc1ccccc1)C(=O)NC(CCC(=O)OCC)C(=O)NC(CCC(=O)OCC)C(=O)NNC(=O)OC(C)(C)C (stereo unspecified),TGI,A549 NSCLC,> 100 µM
same,TGI,NCI-H460 lung,> 100 µM
same,TGI,HOP-62 NSCLC,> 100 µM
same,TGI,OVCAR-5 ovarian,> 100 µM
same,TGI,SW-620 colon,> 100 µM
same,TGI,RXF 393 renal,> 100 µM
same,TGI,OVCAR-8 ovarian,> 100 µM
same,TGI,MDA-N,> 100 µM
same,TGI,SN12C renal,> 100 µM
CC(C)(Cc1ccccc1)N1C(=O)N1C(C)(C)Cc1ccccc1,TGI,A549 NSCLC,77.7 µM
same,TGI,NCI-H460 lung,> 100 µM
same,TGI,OVCAR-5 ovarian,83.1 µM
same,TGI,SW-620 colon,> 100 µM
same,TGI,SK-OV-3 ovarian,> 100 µM
same,TGI,RXF 393 renal,48.3 µM
same,TGI,OVCAR-8 ovarian,> 100 µM
same,TGI,MDA-N,> 100 µM
same,TGI,SN12C renal,> 100 µM
same,TGI,T-47D breast,> 100 µM
CC(C)(C)C(=O)N1CCN(C=O)C1=S,TGI,A549 NSCLC,> 100 µM
same,TGI,NCI-H460 lung,> 100 µM
same,TGI,HOP-62 NSCLC,> 100 µM
same,TGI,OVCAR-5 ovarian,> 100 µM
same,TGI,SW-620 colon,> 100 µM
same,TGI,SK-OV-3 ovarian,> 100 µM
same,TGI,RXF 393 renal,81.9 µM
same,TGI,OVCAR-8 ovarian,> 100 µM
same,TGI,SN12C renal,> 100 µM
same,TGI,T-47D breast,> 100 µM
O=[N+]([O-])c1ccc2c(c1)n1c(N3CCCC3)[n+]3ccccc3c1c1c3cccc[n+]3c(N3CCCC3)n21,TGI,A549 NSCLC,> 100 µM
same,TGI,NCI-H460 lung,> 100 µM
same,TGI,OVCAR-5 ovarian,> 100 µM
same,TGI,SW-620 colon,> 100 µM
same,TGI,RXF 393 renal,> 100 µM
same,TGI,OVCAR-8 ovarian,> 100 µM
same,TGI,MDA-N,> 100 µM
same,TGI,SN12C renal,> 100 µM
same,TGI,T-47D breast,> 100 µM
O=C1/C(=C/c2ccc(O)cc2)CCC1CNc1ccccc1 (stereo unspecified),TGI,A549 NSCLC,34.8 µM
same,TGI,NCI-H460 lung,50.9 µM
same,TGI,HOP-62 NSCLC,36.3 µM
same,TGI,OVCAR-5 ovarian,31.6 µM
same,TGI,SW-620 colon,7.11 µM
same,TGI,SK-OV-3 ovarian,43.9 µM
same,TGI,RXF 393 renal,35.9 µM
same,TGI,OVCAR-8 ovarian,29.9 µM
same,TGI,SN12C renal,29.2 µM
same,TGI,T-47D breast,55.2 µM
CCC1(OC(=O)CN)C(=O)OCc2c1cc1n(c2=O)Cc2cc3cc4c(cc3nc2-1)OCO4 (stereo unspecified),GI50,A549 NSCLC,< 0.01 µM
same,TGI,A549 NSCLC,1.2 µM and 0.347 µM
same,GI50,NCI-H460 lung,< 0.01 µM
same,TGI,NCI-H460 lung,0.0159 µM and 0.0389 µM
same,GI50,HOP-62 NSCLC,< 0.01 µM
same,TGI,HOP-62 NSCLC,< 0.01 µM
same,GI50,OVCAR-5 ovarian,< 0.01 µM
same,TGI,OVCAR-5 ovarian,0.114 µM and 0.219 µM
same,GI50,SW-620 colon,0.0116 µM and 0.0165 µM
same,TGI,SW-620 colon,> 100 µM and 10.2 µM
same,GI50,SK-OV-3 ovarian,< 0.01 µM
same,TGI,SK-OV-3 ovarian,0.174 µM
same,GI50,RXF 393 renal,0.0158 µM
same,TGI,RXF 393 renal,0.119 µM
same,GI50,SN12C renal,< 0.01 µM
same,TGI,SN12C renal,21.8 µM and > 100 µM
